Counter-ions that a name gives are not always drawn.
These molecules were tested against T1, CBS (Homo sapiens, UniProt P35520) (assay: CBS inhibitor screen: H2S production by recombinant CBS (methylene blue assay)). Conditions: 100 μM; homocysteine-induced H2S production; LOPAC library screen.
T1 sequence (P35520 1-551): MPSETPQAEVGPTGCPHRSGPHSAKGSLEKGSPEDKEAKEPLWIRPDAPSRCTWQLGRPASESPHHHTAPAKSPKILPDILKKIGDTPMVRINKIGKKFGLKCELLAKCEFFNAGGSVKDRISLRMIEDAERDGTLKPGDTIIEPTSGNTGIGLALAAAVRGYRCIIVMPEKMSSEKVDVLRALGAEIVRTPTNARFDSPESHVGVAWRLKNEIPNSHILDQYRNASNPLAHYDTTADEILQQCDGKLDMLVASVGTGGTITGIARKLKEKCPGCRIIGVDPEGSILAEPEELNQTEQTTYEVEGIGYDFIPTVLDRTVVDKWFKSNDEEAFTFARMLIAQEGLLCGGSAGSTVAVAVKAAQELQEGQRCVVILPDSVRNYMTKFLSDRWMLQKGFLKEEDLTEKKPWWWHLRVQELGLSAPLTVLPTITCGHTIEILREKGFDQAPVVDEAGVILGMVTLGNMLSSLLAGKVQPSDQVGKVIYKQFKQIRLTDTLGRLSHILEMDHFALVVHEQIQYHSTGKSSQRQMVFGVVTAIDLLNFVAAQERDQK
Assay type: biochemical
Parameters: These studies used full-length human CBS enzyme; made in house; host or cells: E. coli BL21 (DE3) Codon Plus
Text: Studies have been performed characterizing, in detail, the specificity and selectivity of all known H2S biosynthesis inhibitors, using recombinant CBS and CSE enzymes. These studies used full-length human CBS enzyme, and a colorimetric ‘capture’ reaction of the H2S produced by these enzymes, an assay generally known as the ‘methylene blue assay’. This assay is used in a 96-well plate format, as well as in combination with a second screening method based on a fluorescent dye.
Human recombinant CBS is expressed as described (Asimakopoulou et al, (2013) Br J Pharmacol. 169(4):922-32). A library of pharmacologically active compounds (e.g., LOPAC library, Sigma; 1240 compounds) is tested on homocysteine-induced H2S production. In certain aspects the assay is in a 96-well format. In certain aspects H2S production is measured by the methylene blue assay (Asimakopoulou et al., (2013) Br J Pharmacol. 169(4):922-32).
Plasmids, bacterial strains and media. E. coli BL21 (DE3) Codon Plus is used as a host strain to express recombinant human CSE or CBS. CSE cDNA was cloned into pGEX-4T3 and CBS into pGEX-Kg to create N-terminal GSH-S-transferase (GST) fusion proteins. The expression vectors were transformed and plated on LB-agar plates, supplemented with ampicillin (100 μg/mL).
The expression and purification of CSE and CBS is performed as described previously with modifications (Frank et al., (2008) Arch Biochem Biophys 470:64-72; Huang et al., (2009) J Mol Biol 396: 708-18). Briefly, BL21(DE3) Codon Plus cells containing either the expression vector pGEX-4T3/GST-CSE or pGEX-Kg/GST-CBS are grown at 37° C. and 180 r.p.m. in LB broth medium containing 100 μg/mL ampicillin to an absorption of 0.6-0.8 at 600 nm. In addition, 0.3 mM d-ALA is added to the culture containing pGEX-Kg/GST-CBS. Then protein expression is induced by addition of 0.1 mM IPTG. Cells containing pGEX-4T-3/GST-CSE are incubated overnight at 18° C., whereas cells containing pGEXKg/GST-CBS are incubated overnight at 30° C. Culture is then centrifuged at 4° C. and 5000×g for 10 min and the cell pellet was resuspended in PBS (140 mM NaCl, 2.7 mM KCl, 10 mM Na2HPO4, 1.8 mM KH2PO4, pH 7.8) and stored at −20° C. overnight. After thawing, the suspension is sonicated in lysis buffer containing PBS and protease inhibitor cocktail for GST-CSE and PBS, 5 mM DTT, 1% Triton X-100, […] and protease inhibitor cocktail for GST-CBS. After centrifugation at 4° C. for 30 min, the soluble fraction containing either the GST-CSE or the GST-CBS recombinant protein is loaded onto a GSTrap FF 1 mL affinity column that has been equilibrated with binding buffer PBS. The column was consecutively washed with five column volumes of binding buffer. Proteins attached to the column, including GST-CSE or GST-CBS recombinant proteins, are eluted with five column volumes of elution buffer (50 mM Tris-HCl, 10 mM reduced GSH, pH 8.0) and then dialysed and concentrated in 10 mM sodium phosphate buffer pH 8.2 and DTT 1 mM. The purity of the recombinant enzymes was checked by SDS-PAGE on 12% polyacrylamide gels after staining of protein bands with Coomassie Blue R-250. Protein concentration was determined using the DC protein assay kit.
H2S determination is performed according to Stipanuk and Beck ((1982) Biochem J 206:267-77) with some modifications. In the case of the CSE enzyme, an assay consist of a 100 μL reaction mixture containing 5 μg of the purified CSE enzyme, 0.01 mM PLP, 1 mM L-cys, and 50 mM sodium phosphate buffer pH 8.2. For the CBS enzyme, the reaction mixture contains the same as for the CSE plus 1 mM homocysteine. The inhibitors can be added to the reaction before L-cys is added to the solution. Reactions are initiated by transferring the reaction solutions from ice to a 37° C. shaking water bath. After incubation at 37° C. the reaction is terminated by adding 1% ZnAc to trap H2S followed by 10% TCA to precipitate proteins. […]
For `NC(Cc1cc(O)c(O)cc1O)C(=O)O` (racemic) [6-Hydroxy-DL-DOPA], the “Inhibition of CBS activity at 100 μM” value was 77%.
`Cl.NC[C@@H]1O[C@H](C23CC4CC(CC(C4)C2)C3)Cc2c1ccc(O)c2O` [A-77636 hydrochloride] was tested, and the “Inhibition of CBS activity at 100 μM” value was 30%.
In the case of `C[n+]1c2cc(N)ccc2cc2ccc(N)cc21` [Acriflavinium], the “Inhibition of CBS activity at 100 μM” value is reported as 64%.
With `CN1CC[C@@]2(C)c3cc(O)ccc3N(C)[C@@H]12.O=C(O)/C=C/C(=O)O` [Eseroline fumarate] the “Inhibition of CBS activity at 100 μM” value was 60%.
For `O=C1Nc2ccc(I)cc2/C1=C/c1cc(Br)c(O)c(Br)c1` [GW5074], the “Inhibition of CBS activity at 100 μM” value was 87%.
In the case of `CN(N=O)c1ccc(O)c(O)c1` [Me-3,4-dephostatin], the “Inhibition of CBS activity at 100 μM” value is reported as 85%.
For `CC[N+](C)(CC)CCC[n+]1c(-c2ccccc2)c2cc(N)ccc2c2ccc(N)cc21.[I-].[I-]` [Propidium iodide], the “Inhibition of CBS activity at 100 μM” value was 41%.

Same assay, conditions: 100 μM; homocysteine-induced H2S production; LOPAC library screen; read-out: Inhibition of CBS activity at 100 μM
Work on `COC1=C(OC)C(=O)c2ccccc2C1=O` [2,3-Dimethoxy-1,4-naphthoquinone] yielded an inhibition at 100 µM of 98%.
For `O=C(O)C1=CC(=C(c2ccc(O)c(C(=O)O)c2)c2ccc(O)c(C(=O)O)c2)C=CC1=O` [Aurintricarboxylic acid], the inhibition at 100 µM was 75%.
With `C=C(c1ccc(C(=O)O)cc1)c1cc2c(cc1C)C(C)(C)CCC2(C)C` [Bexarotene] the inhibition at 100 µM was 58%.
In the case of `C=C1CC[C@H](O)C/C1=C/C=C1\CCC[C@]2(C)[C@@H]([C@H](C)CCCC(C)(C)O)CC[C@@H]12` [Calcifediol], the inhibition at 100 µM is reported as 32%.
In the case of `C[C@@](Cc1ccc(O)c(O)c1)(NN)C(=O)O` [Carbidopa], the inhibition at 100 µM is reported as 45%.
`Cc1cc(C(C#N)c2ccc(Cl)cc2)c(Cl)cc1NC(=O)c1cc(I)cc(I)c1O` (centres unmarked) [Closantel] was tested, and the inhibition at 100 µM was 72%.
`C[C@@H](N)[C@H]1CC[C@H](C(=O)Nc2ccncc2)CC1` [Compound Y-27632] gave an inhibition at 100 µM of 94%.
`CN(C)[C@@H]1C(O)=C(C(N)=O)C(=O)[C@@]2(O)C(O)=C3C(=O)c4c(O)ccc(Cl)c4[C@@H](O)[C@H]3C[C@@H]12` [Demeclocycline hydrochloride] was tested, and the inhibition at 100 µM was 96%.
In the case of `COc1cccc2c1C(=O)c1c(O)c3c(c(O)c1C2=O)C[C@@](O)(C(=O)CO)C[C@@H]3O[C@H]1C[C@H](N)[C@H](O)[C@H](C)O1` [Doxorubicin], the inhibition at 100 µM is reported as 52%.
For `C[C@H]1c2cccc(O)c2C(=O)C2=C(O)[C@]3(O)C(=O)C(C(N)=O)=C(O)[C@@H](N(C)C)[C@@H]3[C@@H](O)[C@@H]21` [Doxycycline], the inhibition at 100 µM was 57%.
For `C[C@]12CC[C@@H]3c4ccc(O)cc4CC[C@H]3[C@@H]1CC[C@@H]2O` [Estradiol], the inhibition at 100 µM was 53%.
`CC(C)(Sc1ccc(CCN(CCCCC2CCCCC2)C(=O)NC2CCCCC2)cc1)C(=O)O` [GW7647] gave an inhibition at 100 µM of 73%.
`CC[C@H](c1ccc(O)cc1)[C@@H](CC)c1ccc(O)cc1` [Hexestrol] showed an inhibition at 100 µM of 50%.
With `CC(C)C(=O)c1c(C(C)C)nn2ccccc12` [Ibudilast] the inhibition at 100 µM was 30%.
Molecule `C[C@H](CCC(=O)O)[C@H]1CC[C@H]2[C@@H]3CC[C@@H]4C[C@H](O)CC[C@]4(C)[C@H]3CC[C@]12C` [Lithocholic acid] has an inhibition at 100 µM of 42%.
With `CCC1(c2ccccc2)NC(=O)N(C)C1=O` (centres unmarked) [Mephenytoin] the inhibition at 100 µM was 32%.
Molecule `CN1CC[C@@]2(C)c3cc(OC(=O)Nc4ccccc4)ccc3N(C)[C@@H]12` [Phenserine] has an inhibition at 100 µM of 53%.
`O=C(c1ccc(OCCN2CCCCC2)cc1)c1c(-c2ccc(O)cc2)sc2cc(O)ccc12` [Raloxifene] showed an inhibition at 100 µM of 60%.
With `CC1=C(/C=C/C(C)=C/C=C/C(C)=C/C(=O)O)C(C)(C)CCC1` [Retinoic acid] the inhibition at 100 µM was 43%.
For `CC(C)=CC[C@@H](O)C1=CC(=O)c2c(O)ccc(O)c2C1=O` [Shikonin], the inhibition at 100 µM was 51%.
In the case of `Cc1ccc(C(=O)Nc2ccc(S(=O)(=O)O)c3cc(S(=O)(=O)O)cc(S(=O)(=O)O)c23)cc1NC(=O)c1cccc(NC(=O)Nc2cccc(C(=O)Nc3cc(C(=O)Nc4ccc(S(=O)(=O)O)c5cc(S(=O)(=O)O)cc(S(=O)(=O)O)c45)ccc3C)c2)c1` [Suramin sodium], the inhibition at 100 µM is reported as 57%.
For `CN(C)[C@@H]1C(O)=C(C(N)=O)C(=O)[C@@]2(O)C(O)=C3C(=O)c4c(O)cccc4[C@@](C)(O)[C@H]3C[C@@H]12` [Tetracycline], the inhibition at 100 µM was 43%.
Molecule `Cc1c(C)c2c(c(C)c1O)CCC(C)(COc1ccc(CC3SC(=O)NC3=O)cc1)O2` (centres unmarked) [Troglitazone] has an inhibition at 100 µM of 30%.
Molecule `COc1cc(C(=O)NS(=O)(=O)c2ccccc2C)ccc1Cc1cn(C)c2ccc(NC(=O)OC3CCCC3)cc12` [Zafirlukast] has an inhibition at 100 µM of 81%.

Same assay, conditions: read-out: Inhibition of CBS activity at 100 μM
`CC(=O)c1c(O)c(C)c(O)c(Cc2c(O)c3c(c(C(=O)/C=C/c4ccccc4)c2O)OC(C)(C)C=C3)c1O` [Rottlerin] showed an inhibition at 100 µM of 96%.

From US10335382B2, “Use of hydrogen sulfide synthesis inhibitors for cancer therapy” (THE BOARD OF REGENTS OF THE UNIVERSITY OF TEXAS SYSTEM, priority 2013, dated 2019)
